Read-outs that look alike come from different tables or passages of the source. Each block holds one molecule with its values, some of them ahead of it.
Experiments:
senescent cells = assay: Cisplatin-induced peripheral neuropathy (CIPN) in p16-3MR transgenic mice, Von Frey assay and Hot Plate Analgesia Meter; assay type: in vivo; conditions: GCV 25 mg/kg/day or ABT263 50 mg/kg/day i.p., 5 days per cycle, 2 cycles, FIG. 8-11
Procedure: CIPN was induced in young adult male and female p16-3MR mice by intraperitoneal (i.p.) injection of cisplatin (Lake Zurich, Ill., USA) at 2.3 mg/kg/d for 5 days per cycle for 2 cycles with an interval of 5 days between the cycles. The induction of CIPN was measured by analyzing the mechanical sensitivity using the Von Frey assay the day before Cisplatin treatment and on various day after Cisplatin treatment. N=5-6 mice per group.
Mice were treated as described in FIG. 8. The induction of CIPN was measured by analyzing the sensitivity to thermal allodynia using the Hot Plate Analgesia Meter on various day after Cisplatin treatment. N=5-6 mice per group.
To determine the effect of senescent cells on the induction of CIPN, cisplatin-treated mice were administered with vehicle, ganciclovir (GCV) at 25 mg/kg/day for 5 days per cycle for 2 cycles with an interval of 17 days between the cycles, or ABT263 at 50 mg/kg/day for 5 days per cycle for 2 cycles with an interval of 17 days between the cycles by i.p. injection at the indicated times after cisplatin treatment. […] The induction of CIPN was measured by analyzing the mechanical sensitivity using the Von Frey assay (FIG. 8 and FIG. 9) and by analyzing the sensitivity to thermal allodynia using the Hot Plate Analgesia Meter (FIG. 10 and FIG. 11) the day before Cisplatin treatment and on various day after Cisplatin treatment.

[1] = system: IR-induced senescent WI38 cells (IR-SC); assay: Viability of IR-induced senescent WI38 cells, PI staining and flow cytometry, 72 hours; assay type: cell-based; conditions: for EC50: IR-induced senescent WI38 cells, 72 hours, viable PI- cells as percentage of vehicle control; for Ratio NSC/SC: ratio of WI38 EC50 in normal cells to EC50 in IR-induced senescent cells
Procedure: (§1) Normal WI38 (NSC) and IR-induced senescent WI38 cells (IR-SC) were incubated with vehicle or increasing concentrations of compounds of Formula (I) or Formula (II) for 72 hours. The cells were digested with 0.25% trypsin and 1 mM EDTA, and harvested in PBS containing 2% FBS. After incubation with propidium iodide (PI, 100 ng/ml) in PBS at room temperature for 1 minute, cells were centrifuged at 1,200 rpm for 6 minutes to remove PI and then resuspended in PBS containing 2% FBS for analysis using a flow cytometer. Viable cells (PI− cells) were analyzed by flow cytometry at a constant flow rate to count the number of cells and calculated as a percentage of control cells treated with vehicle. Table 1 depicts the EC50 values of the compounds of Formula (I) and compounds of Formula (II) against normal WI38 and IR-induced senescent WI38.

RS4; 11 cancer cells = assay: Cancer cell viability by MTS, 72 hours; assay type: cell-based; conditions: 11 cells
Procedure: (§2) RS4; 11 and NCI-H146 cancer cells were incubated with vehicle or increasing concentrations of compounds of Formula (I) and Formula (II). At 72 hours post-treatment cell viability was measured by MTS and EC50 was calculated as a percentage of control cells treated with vehicle. Table 1 depicts the EC50 values of compounds of Formula (I) and Formula (II) against RS4; 11 and NCI-H146.

NCI-H146 cancer cells = assay: Cancer cell viability by MTS, 72 hours; assay type: cell-based
Procedure: as §2

Normal WI38 (NSC) = assay: Viability of normal WI38 cells, PI staining and flow cytometry, 72 hours; assay type: cell-based
Procedure: as §1

[2] = Homo sapiens, WI-38, viable PI- cells as percentage of vehicle control
[3] = viable PI- cells as percentage of vehicle control

Compound: Nc1nc(O)c2ncn(COC(CO)CO)c2n1 [GCV, ganciclovir]
Reversal of cisplatin-induced peripheral neuropathy (senescent cells): reversed cisplatin-induced peripheral neuropathy (CIPN)

EC50 (RS4; 11 cancer cells; Homo sapiens): 0.114 µM | EC50 (NCI-H146 cancer cells; Homo sapiens): 0.0689 µM
Compound: CC1(C)CCC(c2ccc(Cl)cc2)=C(CN2CCN(c3ccc(C(=O)NS(=O)(=O)c4ccc(N[C@H](CCN5CCN(C(=O)CCCn6cc(COCCOCCNc7cccc8c7C(=O)N(C7CCC(=O)NC7=O)C8=O)nn6)CC5)CSc5ccccc5)c(S(=O)(=O)C(F)(F)F)c4)cc3)CC2)C1 (stereo partly drawn) [PZ-15227, 4-(4-((4′-chloro-4,4-dimethyl-3,4,5,6-tetrahydro-[1,1′-biphenyl]-2-yl)methyl)piperazin-1-yl)-N-((4-(((2R)-4-(4-(4-(4-((2-(2-((2-(2,6-dioxopiperidin-3-yl)-1,3-dioxoisoindolin-4-yl)amino)ethoxy)ethoxy)methyl)-1H-1,2,3-triazol-1-yl)butanoyl)piperazin-1-yl)-1-(phenylthio)butan-2-yl)amino)-3-((trifluoromethyl)sulfonyl)phenyl)sulfonyl)benzamide]
EC50 ([1]; Homo sapiens, WI-38): 0.108 µM | Ratio NSC/SC [1]: >92 | EC50 (Normal WI38 (NSC); [2]): > 10 µM

Compound: CC(C)(C)OC(=O)N1CCN(CC#Cc2ccc(OCCCc3sc(N4CCc5cccc(C(=O)Nc6nc7ccccc7s6)c5C4)nc3C(=O)O)c(F)c2)CC1 [XZ-13861]
Selective inhibition of IR-SC WI38 cells versus normal WI38 cells ([1]; FIG. 2A, FIG. 2B, dose dependent): selectively inhibits IR-SC WI38 cells but not normal WI38 cells in a dose-dependent manner | EC50 [1]: 3.12 µM | EC50 (Normal WI38 (NSC); [3]): 32.8 µM

EC50 (RS4; 11 cancer cells): > 2 µM | EC50 (NCI-H146 cancer cells): > 2 µM
Compound: Cc1ncsc1-c1ccc(CNC(=O)[C@@H]2C[C@@H](O)CN2C(=O)[C@@H](NC(=O)COCCOCCOCc2cn(CCCC(=O)N3CCN(CC#Cc4ccc(OCCCc5sc(N6CCc7cccc(C(=O)Nc8nc9ccccc9s8)c7C6)nc5C(=O)O)c(F)c4)CC3)nn2)C(C)(C)C)cc1 [XZ-14455, 2-(8-(benzo[d]thiazol-2-ylcarbamoyl)-3,4-dihydroisoquinolin-2(1H)-yl)-5-(3-(2-fluoro-4-(3-(4-(4-(4-((S)-12-((2S,4R)-4-hydroxy-2-((4-(4-methylthiazol-5-14)benzyl)carbamoyl)pyrrolidine-1-carbonyl)-13,13-dimethyl-10-oxo-2,5,8-trioxa-11-azatetradecyl)-1H-1,2,3-triazol-1-yl)butanoyl)piperazin-1-yl)prop-1-yn-1-yl)phenoxy)propyl)thiazole-4-carboxylic acid]
EC50 [1]: 1.47 µM | Ratio NSC/SC [1]: 3.40 | EC50 (Normal WI38 (NSC); [3]): 5 µM

Compound: CC1(C)CCC(c2ccc(Cl)cc2)=C(CN2CCN(c3ccc(C(=O)NS(=O)(=O)c4ccc(N[C@H](CCN5CCN(C(=O)COCCOCCOCCNc6cccc7c6C(=O)N(C6CCC(=O)NC6=O)C7=O)CC5)CSc5ccccc5)c(S(=O)(=O)C(F)(F)F)c4)cc3)CC2)C1 (stereo partly drawn) [XZ-14510, 4-(4-((4′-chloro-4,4-dimethyl-3,4,5,6-tetrahydro-[1,1′-biphenyl]-2-yl)methyl)piperazin-1-yl)-N-((4-(((2R)-4-(4-(2-(2-(2-(2-((2-(2,6-dioxopiperidin-3-yl)-1,3-dioxoisoindolin-4-yl)amino)ethoxy)ethoxy)ethoxy)acetyl)piperazin-1-yl)-1-(phenylthio)butan-2-yl)amino)-3-((trifluoromethyl)sulfonyl)phenyl)sulfonyl)benzamide]
Ratio NSC/SC [1]: >56

Compound: CC1(C)CCC(CN2CCN(c3ccc(C(=O)NS(=O)(=O)c4ccc(NCC5CCN(C(=O)CCCn6cc(COCCOCCOCCNc7cccc8c7C(=O)N(C7CCC(=O)NC7=O)C8=O)nn6)CC5)c([N+](=O)[O-])c4)c(Oc4cnc5[nH]ccc5c4)c3)CC2)=C(c2ccc(Cl)cc2)C1 (stereo not shown) [XZ-14523, 2-((1H-pyrrolo[2,3-b]pyridin-5-yl)oxy)-4-(4-((4′-chloro-5,5-dimethyl-3,4,5,6-tetrahydro-[1,1′-biphenyl]-2-yl)methyl)piperazin-1-yl)-N-((4-(((1-(4-(4-((2-(2-(2-((2-(2,6-dioxopiperidin-3-yl)-1,3-dioxoisoindolin-4-14)amino)ethoxy)ethoxy)ethoxy)methyl)-1H-1,2,3-triazol-1-yl)butanoyl)piperidin-4-yl)methyl)amino)-3-nitrophenyl)sulfonyl)benzamide]
EC50 [1]: > 10 µM | EC50 (RS4; 11 cancer cells): 0.161 µM | EC50 (NCI-H146 cancer cells): 1.26 µM | EC50 (Normal WI38 (NSC); [3]): > 10 µM

Compound: CC1(C)CCC(c2ccc(Cl)cc2)=C(CN2CCN(c3ccc(C(=O)NS(=O)(=O)c4ccc(N[C@H](CCN5CCN(CCOCCOCCOCCNc6cccc7c6C(=O)N(C6CCC(=O)NC6=O)C7=O)CC5)CSc5ccccc5)c(S(=O)(=O)C(F)(F)F)c4)cc3)CC2)C1 (stereo partly drawn) [XZ-15418, 4-(4-((4′-chloro-4,4-dimethyl-3,4,5,6-tetrahydro-[1,1′-biphenyl]-2-yl)methyl)piperazin-1-yl)-N-((4-(((2R)-4-(4-(2-(2-(2-(2-((2-(2,6-dioxopiperidin-3-yl)-1,3-dioxoisoindolin-4-yl)amino)ethoxy)ethoxy)ethoxy)ethyl)piperazin-1-yl)-1-(phenylthio)butan-2-yl)amino)-3-((trifluoromethyl)sulfonyl)phenyl)sulfonyl)benzamide]
EC50 ([1]; Homo sapiens, WI-38): 0.172 µM | EC50 (RS4; 11 cancer cells; Homo sapiens): 0.0123 µM | EC50 (Normal WI38 (NSC); [2]): > 10 µM

— US20190054097A1, “COMPOSITIONS TARGETING SENESCENT CELLS AND THE USES THEREOF” (BioVentures, LLC, priority 2016, published 2019)
